Experimental data as given in patent US9663460B2, “Sulfur derivatives as chemokine receptor modulators” (ALLERGAN, INC., priority 2010, dated 2017).

Target: CCR2 (Homo sapiens (Human), UniProt P41597)
Assay: Calcium activity assayed on the FLIPR Tetra in HEK-Gqi5 cells stably expressing CCR2
Format: cell-based
Details: FLIPR Tetra calcium assay
Method: HEK-Gqi5 cells stably expressing CCR2 were cultured in (DMEM high glucose, 10% FBS, 1% PSA, 400 μg/ml geneticin and 50 μg/ml hygromycin. Appropriate positive control chemokines (MCP-1, MIP1A or RANTES) was used as the positive control agonist for screening compound-induced calcium activity assayed on the FLIPR^Tetra. The drug plates were prepared in 384-well microplates using the EP3 and the MuItiPROBE robotic liquid handling systems. Compounds were synthesized and tested for CCR^2 activity.

CCR2, sequence (P41597 whole entry, species assumed): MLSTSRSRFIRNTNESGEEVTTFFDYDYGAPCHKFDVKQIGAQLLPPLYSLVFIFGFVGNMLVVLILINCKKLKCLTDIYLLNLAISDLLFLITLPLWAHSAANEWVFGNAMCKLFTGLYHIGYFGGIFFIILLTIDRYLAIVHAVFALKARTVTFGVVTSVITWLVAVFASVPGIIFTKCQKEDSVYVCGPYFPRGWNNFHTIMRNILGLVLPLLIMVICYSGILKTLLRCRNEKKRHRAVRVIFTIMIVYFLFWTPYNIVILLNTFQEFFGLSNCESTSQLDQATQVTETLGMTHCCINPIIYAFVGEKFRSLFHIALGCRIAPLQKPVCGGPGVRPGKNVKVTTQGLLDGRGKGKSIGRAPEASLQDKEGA

| CCR2 % ANTAGONISM | IC50 | Compound |
| --- | --- | --- |
| 97% | – | CC(=O)NCC[S+]([O-])c1ccc(Cl)cc1NS(=O)(=O)c1ccc(Cl)c(C(F)(F)F)c1 (stereo not drawn) [N-(2-{[4-chloro-2-({[4-chloro-3-(trifluoromethyl)phenyl]sulfonyl}amino)phenyl]sulfinyl}ethyl)acetamide] |
| 98% | 5190 nM | CC(=O)NCCS(=O)(=O)c1ccc(Cl)cc1NS(=O)(=O)c1ccc(Cl)c(C(F)(F)F)c1 [N-(2-{[4-chloro-2-({[4-chloro-3-(trifluoromethyl)phenyl]sulfonyl}amino)phenyl]sulfonyl}ethyl)acetamide] |
| 100% | 262 nM | Nc1nc(C[S+]([O-])c2ccc(Cl)cc2NS(=O)(=O)c2cc3ccccc3o2)cs1 (stereo not drawn) [N-(2-{[(2-amino-1,3-thiazol-4-yl)methyl]sulfinyl}-5-chlorophenyl)-1-benzofuran-2-sulfonamide] |
| 102% | 83 nM | Nc1nc(CS(=O)(=O)c2ccc(Cl)cc2NS(=O)(=O)c2cc3ccccc3o2)cs1 [N-(2-{[(2-amino-1,3-thiazol-4-yl)methyl]sulfonyl}-5-chlorophenyl)-1-benzofuran-2-sulfonamide] |
| 102% | 42 nM | Nc1nc(CSc2ccc(Cl)cc2NS(=O)(=O)c2cc3ccccc3o2)cs1 [N-(2-{[(2-amino-1,3-thiazol-4-yl)methyl]thio}-5-chlorophenyl)-1-benzofuran-2-sulfonamide] |
| 54% | 9960 nM | Nc1cc(CS(=O)(=O)c2ccc(Cl)cc2NS(=O)(=O)c2cc3ccccc3o2)cc[n+]1[O-] [N-(2-{[(2-amino-1-oxidopyridin-4-yl)methyl]sulfonyl}-5-chlorophenyl)-1-benzofuran-2-sulfonamide] |
| 101% | 865 nM | Nc1cc(C[S+]([O-])c2ccc(Cl)cc2NS(=O)(=O)c2cc3ccccc3o2)ccn1 (stereo not drawn) [N-(2-{[(2-aminopyridin-4-yl)methyl]sulfinyl}-5-chlorophenyl)-1-benzofuran-2-sulfonamide] |
| 101% | 364 nM | Nc1cc(CS(=O)(=O)c2ccc(Cl)cc2NS(=O)(=O)c2cc3ccccc3o2)ccn1 [N-(2-{[(2-aminopyridin-4-yl)methyl]sulfonyl}-5-chlorophenyl)-1-benzofuran-2-sulfonamide] |
| 100% | 80 nM | Nc1cc(CSc2ccc(Cl)cc2NS(=O)(=O)c2cc3ccccc3o2)ccn1 [N-(2-{[(2-aminopyridin-4-yl)methyl]thio}-5-chlorophenyl)-1-benzofuran-2-sulfonamide] |
| 99% | 1380 nM | Nc1cc(C[S+]([O-])c2ccc(Cl)cc2NS(=O)(=O)c2cc3ccccc3o2)n[nH]1 (stereo not drawn) [N-(2-{[(5-amino-1H-pyrazol-3-yl)methyl]sulfinyl}-5-chlorophenyl)-1-benzofuran-2-sulfonamide] |
| 98% | 1870 nM | Nc1cc(CS(=O)(=O)c2ccc(Cl)cc2NS(=O)(=O)c2cc3ccccc3o2)n[nH]1 [N-(2-{[(5-amino-1H-pyrazol-3-yl)methyl]sulfonyl}-5-chlorophenyl)-1-benzofuran-2-sulfonamide] |
| 105% | 25 nM | Nc1cc(CSc2ccc(Cl)cc2NS(=O)(=O)c2cc3ccccc3o2)n[nH]1 [N-(2-{[(5-amino-1H-pyrazol-3-yl)methyl]thio}-5-chlorophenyl)-1-benzofuran-2-sulfonamide] |
| 48% | – | Nc1nnc(C[S+]([O-])c2ccc(Cl)cc2NS(=O)(=O)c2cc3ccccc3o2)[nH]1 (stereo not drawn) [N-(2-{[(5-amino-4H-1,2,4-triazol-3-yl)methyl]sulfinyl}-5-chlorophenyl)-1-benzofuran-2-sulfonamide] |
| 103% | 32 nM | Nc1nnc(CSc2ccc(Cl)cc2NS(=O)(=O)c2cc3ccccc3o2)[nH]1 [N-(2-{[(5-amino-4H-1,2,4-triazol-3-yl)methyl]thio}-5-chlorophenyl)-1-benzofuran-2-sulfonamide] |
| 95% | 264 nM | Nc1cccc(CS(=O)(=O)c2ccc(Cl)cc2NS(=O)(=O)c2cc3ccccc3o2)[n+]1[O-] [N-(2-{[(6-amino-1-oxidopyridin-2-yl)methyl]sulfonyl}-5-chlorophenyl)-1-benzofuran-2-sulfonamide] |
| 99% | 28 nM | Nc1cccc(C[S+]([O-])c2ccc(Cl)cc2NS(=O)(=O)c2cc3ccccc3o2)n1 (stereo not drawn) [N-(2-{[(6-aminopyridin-2-yl)methyl]sulfinyl}-5-chlorophenyl)-1-benzofuran-2-sulfonamide] |
| 102% | 15 nM | Nc1cccc(CS(=O)(=O)c2ccc(Cl)cc2NS(=O)(=O)c2cc3ccccc3o2)n1 [N-(2-{[(6-aminopyridin-2-yl)methyl]sulfonyl}-5-chlorophenyl)-1-benzofuran-2-sulfonamide] |
| 94% | 32 nM | Nc1cccc(CSc2ccc(Cl)cc2NS(=O)(=O)c2cc3ccccc3o2)n1 [N-(2-{[(6-aminopyridin-2-yl)methyl]thio}-5-chlorophenyl)-1-benzofuran-2-sulfonamide] |
| 67% | 1060 nM | O=S(=O)(Nc1cc(Cl)ccc1[S+]([O-])CCc1cn[nH]c1)c1cc2ccccc2o1 (stereo not drawn) [N-(5-chloro-2-{[2-(1H-pyrazol-4-yl)ethyl]sulfinyl}phenyl)-1-benzofuran-2-sulfonamide] |
| 93% | 570 nM | O=S(=O)(CCc1cn[nH]c1)c1ccc(Cl)cc1NS(=O)(=O)c1cc2ccccc2o1 [N-(5-chloro-2-{[2-(1H-pyrazol-4-yl)ethyl]sulfonyl}phenyl)-1-benzofuran-2-sulfonamide] |
| 91% | 412 nM | O=S(=O)(Nc1cc(Cl)ccc1SCCc1cn[nH]c1)c1cc2ccccc2o1 [N-(5-chloro-2-{[2-(1H-pyrazol-4-yl)ethyl]thio}phenyl)-1-benzofuran-2-sulfonamide] |
| 83% | 3050 nM | Cc1n[nH]c(C)c1CC[S+]([O-])c1ccc(Cl)cc1NS(=O)(=O)c1cc2ccccc2o1 (stereo not drawn) [N-(5-chloro-2-{[2-(3,5-dimethyl-1H-pyrazol-4-yl)ethyl]sulfinyl}phenyl)-1-benzofuran-2-sulfonamide] |
| 96% | 1090 nM | Cc1n[nH]c(C)c1CCS(=O)(=O)c1ccc(Cl)cc1NS(=O)(=O)c1cc2ccccc2o1 [N-(5-chloro-2-{[2-(3,5-dimethyl-1H-pyrazol-4-yl)ethyl]sulfonyl}phenyl)-1-benzofuran-2-sulfonamide] |
| 89% | 279 nM | Cc1n[nH]c(C)c1CCSc1ccc(Cl)cc1NS(=O)(=O)c1cc2ccccc2o1 [N-(5-chloro-2-{[2-(3,5-dimethyl-1H-pyrazol-4-yl)ethyl]thio}phenyl)-1-benzofuran-2-sulfonamide] |
| 81% | – | CN(C)CCC[S+]([O-])c1ccc(Cl)cc1NS(=O)(=O)c1cc2ccccc2o1 (stereo not drawn) [N-(5-chloro-2-{[3-(dimethylamino)propyl]sulfinyl}phenyl)-1-benzofuran-2-sulfonamide] |
| 96% | – | CN(C)CCCS(=O)(=O)c1ccc(Cl)cc1NS(=O)(=O)c1cc2ccccc2o1 [N-(5-chloro-2-{[3-(dimethylamino)propyl]sulfonyl}phenyl)-1-benzofuran-2-sulfonamide] |
